Earlier results, collected in patent publication US6451357B1, “Method for purification of aloesin” (Unigen Pharmaceuticals, Inc., priority 2001, dated 2002).

Assays:
tyrosinase [1] = conditions: Lineweaver Burk diagram
[2] = test system: de-pigmentation of the skin; conditions: relative to hydroquinone
tyrosinase [3] = conditions: in vitro

For `COc1cc(/C=C/C(=O)O[C@@H]2[C@@H](O)[C@H](O)[C@@H](CO)O[C@H]2c2c(O)cc(C)c3c(=O)cc(CC(C)=O)oc23)ccc1O` [2″-feruloylaloesin, 2″-O-feruloylaloesin], the “type of tyrosinase inhibition” value (tyrosinase [1]) is listed as “non-competitive inhibitor”.

In the case of `OC[C@H]1O[C@@H](Oc2ccc(O)cc2)[C@H](O)[C@@H](O)[C@@H]1O` [arbutin], the “quantity required to achieve a similar effect compared to the quantity of hydroquinone used” value [2] is listed as “over 100 times”.

For `CC(=O)Cc1cc(=O)c2c(C)cc(O)c([C@@H]3O[C@H](CO)[C@@H](O)[C@H](O)[C@H]3O)c2o1` [aloesin], the “type of tyrosinase inhibition” value (tyrosinase [1]) is given as “competitive inhibitor”, the “tyrosinase inhibition in words” value (tyrosinase [3]) is given as “strong inhibitor” and the IC50 (tyrosinase [3]; substrate L-DOPA, read-out: concentration capable of 50% inhibition of tyrosinase activity) is given as 200 µM.

In the case of `O=C1O[C@H]([C@@H](O)CO)C(O)=C1O` [ascorbic acid], the “quantity required to achieve a similar effect compared to the quantity of hydroquinone used” value [2] is listed as 17 times.
